Patent publication US11813268B2, “Mitofusin activators and uses thereof” (Albert Einstein College of Medicine, priority 2017, dated 2023)

Legend:
WT MEFs [1] = experiment: cells
From the text: Next, it was visually examined if MASM7 could induce mitochondrial fusion in MEFs, using mitochondrial aspect ratio (mitochondrial length/width, reflecting fusion) as a readout. […] (FIG. 5).

MEFs [2] = experiment: Cell viability assay (CellTiter-Glo) in MEFs; format: cell-based; conditions: 24 h
Description: Cells (5×10^3 cells/well) were seeded in a 96-well white plate and treated with serial dilutions of MASM7 or vehicle (0.1% DMSO). Cell viability was assayed after 24 h by addition of CellTiter-Glo reagent according to the manufacturer's protocol (Promega). Luminescence was measured using a F200 PRO microplate reader (TECAN). Viability assays were performed in at least triplicate and the data normalized to vehicle-treated control wells. Dilutions of MASM7 were performed using a TECAN D300e Digital Dispenser from 10 mM stocks.

MEFs [3] = experiment: Caspase-3/7 activation assay in MEFs; format: cell-based; conditions: 5 μM, 24 h
Description: Cells (5×10^3 cells/well) were seeded in a 96-well white plate and treated with MASM7 (5 μM), doxorubicin (1 μM) or vehicle (0.05% DMSO). Caspase 3/7 activation was measured after 24 h by addition of the Caspase-Glo 3/7 chemiluminescence reagent according to the manufacturer's protocol (Promega). Luminescence was detected by a […] microplate reader (TECAN).

MEFs [4] = experiment: TMRE mitochondrial membrane potential assay in MEFs; format: cell-based; conditions: 5 μM, 24 h
Description: Carbonyl cyanide 3-chlorophenylhydrazone (CCP) was used as a positive control (20 μM, 40 min). Following treatments, cells were stained with 400 nM TMRE (Sigma Cat. 87917) for 20 min at 37° C. Subsequently, cells were washed with once with PBS. Fluorescence intensity was detected by a M100 microplate reader (TECAN, Ex: 540 nm/Em: 579 nm).

MEFs [5] = experiment: Staurosporine-induced apoptosis (active caspase 3) in MEFs; format: cell-based; conditions: co-treated with staurosporine (STS)
Description: Transfected HEK 293T or MEFs were washed with once PBS and fixed with 2% PFA for 13 min. Subsequently, cells were blocked, then incubated for 1 h at room temperature with the primary antibody for ATP5B (Abcam; ab128743) or active caspase 3 (R&D Systems; AF835). After incubation with the primary antibody, cells were washed with PBS and incubated for 1 h at room temperature with the secondary antibody (ThermoFisher Scientific; A11010). […] Data were analyzed with Image J software.
Consistent with previous reports showing that inhibition of fission reduced apoptosis (8,12-14), the effect of MASM7 was evaluated upon a classic apoptotic stimulus such as staurosporine (STS) in MEFs.

cancer cells = experiment: Toxicity in cancer cells; conditions: 15 μM, 72 h
From the text: (§1) TMRE staining was used as readout. […] CellROX was used to evaluate ROS levels.

lymphoma cells = experiment: Viability of lymphoma cells
From the text: as §1

Farage cells [6] = experiment: Caspase 3 activation in Farage cells
From the text: as §1

Farage cells [7] = experiment: ROS levels (CellROX) in Farage cells
From the text: as §1

WT MEFs [8] = experiment: Mitochondrial respiration (Seahorse OCR) in WT MEFs; conditions: 1 μM, 2 h
Farage cells [9] = experiment: TMRE mitochondrial membrane potential in Farage cells
From the text: as §1

MFN1/MFN2 DKO MEFs = conditions: 1 μM, 2 h
Description: Mitochondrial respiration. Mitochondrial oxygen consumption rates (OCR) were assessed using a XF24 Analyzer (Seahorse Biosciences, Billerica Mass., USA). […] OCR was normalized to cell number or total protein content per well for each condition tested. […] Data are expressed as Mean±SEM, OCR from untreated control for each condition; using n=3-5 individual experiments with n=3-5 replicates for each group tested.

[10] = tested on: MFN1/MFN2 DKO MEFs reconstituted with WT, L727A and D725A/L727A MFN2; conditions: L727A and D725A/L727A MFN2 vs WT
Description: Evaluation of mitochondrial morphology using mitochondrial aspect ratio (Mito AR; length/width) as a readout. […] Mitotracker green stains mitochondria. Scale bar 20 μm. […] Quantification of Mito AR in MFN1/MFN2 DKO MEFs reconstituted with WT, L727A and D725A/L727A MFN2.
Live cell imaging. […] Images were taken with Leica SP5 inverted confocal microscope. Data were analyzed with Image J software. >200 mitochondria were measured per condition in mitochondrial aspect ratio.

CC(Sc1nnc(C2CC2)n1-c1ccccc1)C(=O)Nc1sc2c(c1C(N)=O)CCC2 (stereo not drawn) [MASM7]
Mitochondrial aspect ratio in WT MEFs (WT MEFs [1]; 1 μM, 2 h): increased mitochondrial aspect ratio
EC50 (WT MEFs [1]; read-out: EC50 for inducing fusion (Mito AR)): 0.075 µM
Viability of MEFs (MEFs [2]): did not reduce viability
Caspase 3/7 activation in MEFs (MEFs [3]): did not induce caspase 3/7 activation
Mitochondrial membrane potential in MEFs (TMRE) (MEFs [4]): did not reduce viability or mitochondrial membrane potential
Population of MEFs positive to caspase 3 activation (MEFs [5]): reduced significantly
Toxicity in the indicated cancer cells (cancer cells): low to moderate toxicity
Viability of lymphoma cells (lymphoma cells): reduces viability selectively in lymphoma cells
Caspase 3 activation in Farage cells (Farage cells [6]): promotes caspase 3 activation in a dose and time dependent manner
ROS levels in Farage cells (CellROX) (Farage cells [7]): increases ROS levels
ATP production, WT MEFs (WT MEFs [8]): increases ATP production
Basal and maximal oxygen consumption rate (OCR), WT MEFs (WT MEFs [8]): increases basal and maximal oxygen consumption rate (OCR)
Mitochondrial membrane potential in Farage cells (TMRE) (Farage cells [9]): reduces mitochondrial membrane potential in a dose and time dependent manner
Basal and maximal OCR, MFN1/MFN2 DKO MEFs (MFN1/MFN2 DKO MEFs): does not increase basal and maximal OCR
MASM7-induced fusion (Mito AR) with HR2 domain mutations of Mfn2 [10]: inhibits MASM7-induced fusion
